# From patent publication US20250049831A1, “ANTIVIRAL USE OF BISE[…], AND BISEPOXYLIGNAN COMPOSITION AND PREPARATION OF BISE[…]” (priority 2021, published 2025)
# Like-named read-outs stand apart in the source and are kept apart here.
# Experiments:
# [1] = tested on: influenza virus; type: in vivo, Kunming mice; settings: for Hemagglutination titer inhibition rate (%): Day 5; for Hemagglutination titer: lung suspension
# [2] = tested on: parainfluenza virus; type: in vivo, Kunming mice; settings: for Hemagglutination titer inhibition rate (%): Day 5; for Hemagglutination titer: lung suspension, Day 5, […]
# [3] = tested on: IL-1β; assay: RT-qPCR of IL-1β in lung homogenate of mice infected with COVID-19 Delta virus; settings: mRNA RT-qPCR, NC = 1.00
# [4] = tested on: MCP-1; assay: RT-qPCR of MCP-1 in lung homogenate of mice infected with COVID-19 Delta virus; settings: mRNA RT-qPCR, NC = 1.00
# [5] = tested on: TNF-α; assay: Serum TNF-α in mice infected with influenza virus; type: in vivo, ICR mice; settings: Day 5 after influenza virus infection, gavage once a day, x ± s
# Experimental: (§1) On the Day 5 after influenza virus infection, that is, Day 6 after administration, after the mice were fasted with solids for 8 h and weighed, venous blood was collected from the plexus ophthalmicus, and blood from mice in each group was preserved, subjected to serum separation, and stored in a refrigerator for later use. According to the instructions of a test kit, various detection and analysis were carried out, and IL-2 and TNF-α concentrations were calculated based on the standard detection and standard curve plotting.
# [6] = tested on: IL-2; assay: Serum IL-2 in mice infected with influenza virus; type: in vivo, ICR mice; settings: Day 5 after influenza virus infection, gavage once a day, x ± s
# Experimental: as §1
# [7] = tested on: influenza virus FM1; assay: Action links (Groups I-IV: prevention, treatment, direct inactivation), protection of cells against influenza virus; type: cell-based
# [8] = tested on: parainfluenza virus; assay: Action links (Groups I-IV: prevention, treatment, direct inactivation), protection of cells against parainfluenza virus; type: cell-based
# [9] = tested on: COVID-19 Delta virus; assay: Prophylactic administration, virus titer in lung tissues of mice infected with COVID-19 Delta virus; settings: prophylactic gavage 5 days before infection, Day 5 after infection, TCID50 on VERO E6 cells
# [10] = tested on: COVID-19 Delta virus; assay: Prophylactic administration, death protection of mice infected with COVID-19 Delta virus; settings: prophylactic administration, within 5 days of Delta infection, n = 8; for Mean survival: x ± s
# Experimental: hACE2 transgenic C57BL/6 mice were divided (8 mice in each group) into a normal group (NC), a virus infection group (Virus), and drug groups (a COVID-19 Delta virus low-dose (40 mg/kg) group, high-dose (80 mg/kg) group; and a positive control group (Remdesivir 50 mg/kg). Before nasal dripping infection, the drug was administered by gavage 5 days in advance, once a day. After 5 days of continuous gavage, nasal dripping infection was performed, and mice in each COVID-19 virus infection group were infected with COVID-19 Delta virus with 10′ PFU by nasal dripping, except for the normal group who were given PBS by nasal dripping.
# After infection, the body weight change was recorded every day, the death of animals within 5 days of infection was recorded, and the mean survival days and mortality rate of 5 days were calculated.
# [11] = tested on: COVID-19 virus; assay: In-vitro antiviral CPE test in Vero E6 cells, COVID-19 virus; type: cell-based; settings: Vero E6 cells, 100 TCID50, CPE after 3-4 days; unit not given (drug concentrations 250-15.62 μg/mL); in µg/mL
# [12] = tested on: Vero cells; assay: Drug cytotoxicity assay (MTT) on Vero cells; type: cell-based, African green monkey; settings: 72 h, Probit regression
# Text: Vero cells were subcultured for 1-2 d to make them into flakes, and trypsinized in the presence of clear boundaries, strong three-dimensional sense and strong refractive power, until needle-like holes appeared on the cell surfaces; after the trypsinization solution was absorbed completely, a few milliliters of culture medium were taken to blow away the cells; the cells were counted, diluted to about 5×10^7/L with a culture medium (DMEM containing 10% fetal bovine serum), and then inoculated in a 96-well culture plate; and the cells grew into a monolayer.
# Cytotoxicity test: the drugs were diluted at the concentrations shown in Table 3-1 for cytotoxicity assay.
# [13] = tested on: influenza virus; assay: Effect of drug on virus-induced CPE (MTT, antiviral effective rate), influenza virus in Vero cells; type: cell-based
# [14] = tested on: parainfluenza virus; assay: Effect of drug on virus-induced CPE (MTT, antiviral effective rate), parainfluenza virus in Vero cells; type: cell-based
# [15] = high-dose group 80 mg/kg gavage 5 days
# [16] = low-dose group 40 mg/kg gavage 5 days
# [17] = drug and virus mixed and adsorbed for 2 h, then added with cells (direct inactivation)
# [18] = drug solution and virus solution added at the same time (direct inactivation)
# [19] = virus added first, drug added 1 h after adsorption (treatment)
# [20] = virus solution added after 24 h of drug administration (prevention)
structure (smiles),measurement,setting,value
"COc1cc([C@H]2OC[C@H]3[C@@H]2CO[C@H]3c2ccc(OC)c(OC)c2)ccc1O [Serial No. 3, phillygenin]",Hemagglutination titer inhibition rate (%),[1]; 13.0 mg/kg,42.20%
same,Hemagglutination titer,"[1]; 13.0 mg/kg, Day 5, […]",20.50 ± 0.489
same,Hemagglutination titer inhibition rate (%),[2]; 13.0 mg/kg,36.28%
same,Hemagglutination titer,[2]; 13.0 mg/kg,22.06 ± 0.310
same,Expression level of IL-1β in lung homogenate (x ± s),[3]; [15],4.93 ± 16.18
same,Expression level of IL-1β in lung homogenate (x ± s),[3]; [16],9.98 ± 11.16
same,Expression level of MCP-1 in lung homogenate (x ± s),[4]; [15],3.67 ± 10.22
same,Expression level of MCP-1 in lung homogenate (x ± s),[4]; [16],6.71 ± 4.38
same,TNF-a expression level,[5]; High-dose group (26.0 mg/kg),648.40 ± 27.19
same,TNF-a expression level,[5]; Low-dose group (13.0 mg/kg),713.48 ± 39.74
same,IL-2 expression level,[6]; High-dose group (26.0 mg/kg),275.59 ± 31.88
same,IL-2 expression level,[6]; Low-dose group (13.0 mg/kg),306.70 ± 34.88
same,"Protection rate (ER %), Group IV",[7]; [17],100.38%
same,"Protection rate (ER %), Group III",[7]; [18],100.86%
same,"Protection rate (ER %), Group II",[7]; [19],75.51%
same,"Protection rate (ER %), Group I",[7]; [20],75.46%
same,"Protection rate (ER %), Group IV",[8]; [17],100.18%
same,"Protection rate (ER %), Group III",[8]; [18],100.46%
same,"Protection rate (ER %), Group II",[8]; [19],85.11%
same,"Protection rate (ER %), Group I",[8]; [20],84.15%
same,"Lung virus titer (x ± s, n = 8)",[9]; high dose 80 mg/kg,2.98 ± 0.73
same,"Lung virus titer (x ± s, n = 8)",[9]; low dose 40 mg/kg,3.47 ± 0.98
same,Death rate,[10]; High dose,12.50%
same,Survival rate,[10]; High dose,87.50%
same,Mean survival,[10]; High dose,4.88 ± 0.35 days
same,Death rate,[10]; Low dose,75.00%
same,Survival rate,[10]; Low dose,25.00%
same,Mean survival,[10]; Low dose,4.13 ± 0.64 days
COc1ccc([C@H]2OC[C@H]3[C@@H]2CO[C@H]3c2ccc(O[C@@H]3O[C@H](CO)[C@@H](O)[C@H](O)[C@H]3O)c(OC)c2)cc1OC [compound 2],COVID-19 virus IC50,[11],63.3
same,Maximum non-toxic concentration (TC0),[12],0.0067 g/L
same,Median toxic concentration (TC50),[12],560 µg/mL
same,"Effective rate, ER %, Influenza Virus",[13],85.94%
same,"Effective rate, ER %, Parainfluenza Virus",[14],94.43%
COc1ccc(C2OCC3C(c4ccc(OC(=O)C(C)c5ccc(CC(C)C)cc5)c(OC)c4)OCC23)cc1OC (centres unmarked) [compound 6],COVID-19 virus IC50,[11],161.8
same,Maximum non-toxic concentration (TC0),[12],0.012 g/L
same,Median toxic concentration (TC50),[12],310 µg/mL
same,"Effective rate, ER %, Influenza Virus",[13],84.51%
same,"Effective rate, ER %, Parainfluenza Virus",[14],93.96%
COc1cc(O)cc(C2OCC3C(c4ccc(OC5OC(CO)C(O)C(O)C5O)c(OC)c4)OCC23)c1 (centres unmarked) [compound 1],COVID-19 virus IC50,[11],62.1
same,Maximum non-toxic concentration (TC0),[12],0.0067 g/L
same,Median toxic concentration (TC50),[12],560 µg/mL
same,"Effective rate, ER %, Influenza Virus",[13],89.02%
same,"Effective rate, ER %, Parainfluenza Virus",[14],99.92%
"CCOC(=O)C1=C[C@@H](OC(CC)CC)[C@H](NC(C)=O)[C@@H](N)C1 [Oseltamivir phosphate, reference compound]",Maximum non-toxic concentration (TC0),[12],0.29 g/L
same,Median toxic concentration (TC50),[12],831 µg/mL
same,"Effective rate, ER %, Influenza Virus","[13]; Vero cells, 100TCID50, drug at experimental concentration of Table 3-2 (about maximum non-toxic), 72 h, MTT",81.92%
same,"Effective rate, ER %, Parainfluenza Virus",[14],91.16%
same,Hemagglutination titer inhibition rate (%),[1]; 19.5 mg/kg,37.78%
same,Hemagglutination titer,"[1]; 19.5 mg/kg, Day 5, titer (InX)",22.07 ± 0.235
same,Hemagglutination titer inhibition rate (%),[2]; 19.5 mg/kg,32.93%
same,Hemagglutination titer,[2]; 19.5 mg/kg,23.22 ± 0.648
same,TNF-a expression level,[5]; 19.5 mg/kg,658.91 ± 38.33
same,IL-2 expression level,[6]; 19.5 mg/kg,279.83 ± 23.26
